Earlier results in PubChem BioAssay AID1259409 (Chemical Carcinogenesis Research Information System (CCRIS), 2018).
Where “and” joins values, the source holds several entries; their conditions need not be identical. Identical values can stand only once.

Test system: rodent chemically induced tumor inhibition, incidence and multiplicity
Test: CCRIS tumor inhibitor studies

Oc1cc(O)c2c(c1)O[C@H](c1ccc(O)c(O)c1)[C@H](O)C2
tumour outcome (control, treated, inhibition, significance) (Carcinogen: 3-METHYLCHOLANTHRENE, 56-49-5, Dose [Inhibitor]: 0, 2 MG IN 0.1 ML STERILE SALINE 1/D FOR 5 CONSECUTIVE D BEGINNING 30 D POST CARCINOGEN TREATMENT (STUDY DURATION: 20 WK, Route [Inhibitor]: GAVAGE, Species: MOUSE, Strain/Sex: SWISS/MALE, Target Tissue: Type of Lesion: INJECTION SITE: SARCOMA, Dose [Carcinogen]: 745 NMOL IN 0.1 ML DMSO 1/D FOR 2 CONSECUTIVE D, Promoter: NONE USED): 100%, 33%, 67%, p<0.01 | tumour outcome (control, treated, inhibition, significance) (Carcinogen: 7,12-DIMETHYLBENZ[A]ANTHRACENE, 57-97-6, Dose [Inhibitor]: 0, 2 MG IN 0.1 ML DMSO 2/WK FOR 6 WK ADMINISTERED 30 MIN POST EACH PROMOTER DOSE (STUDY DURATION: 12 WK), Route [Inhibitor]: DERMAL, Species: MOUSE, Strain/Sex: SWISS/MALE, Target Tissue: Type of Lesion: SKIN: PAPILLOMA, Dose [Carcinogen]: 450 NMOL IN 0.1 ML DMSO ONCE, Promoter: CROTON OIL, 8001-28-3): 17/30 (57%), 14/30 (47%), 18%, not significant

OCC(S)CS (configuration not stated)
tumour outcome (control, treated, inhibition, significance) (Carcinogen: TRANS-5-AMINO-3-[2-(5-NITRO-2-FURYL)VINYL]-1,2,4-OXADIAZOLE;SQL8506, 28754-68-9, Carcinogen: TRANS-5-AMINO-3-[2-(5-NITRO-2-FURYL)VINYL]-1,2,4-OXADIAZOLE;SQL8506, 28754-68-9, Dose [Inhibitor]: 80 MG/KG 18 HR BEFORE THE 1ST CARCINOGEN DOSE FOLLOWED BY ADDITIONAL INJECTIONS IMMEDIATELY BEFORE EACH DOSE OF CARCINOG, Route [Inhibitor]: INTRAPERITONEAL, Species: MOUSE, Strain/Sex: CD-1/FEMALE, Target Tissue: Type of Lesion: LYMPHOID TISSUE: NONTHYMIC LYMPHOMA, Dose [Carcinogen]: 1 G/KG 2/D FOR 5 D EVERY 4 WK FOR 3 COURSES OF TREATMENT, Promoter: NONE USED): 8/137 (6%), 1/26 (4%), 33%, not calculated | tumour outcome (control, treated, inhibition, significance) (Carcinogen: TRANS-5-AMINO-3-[2-(5-NITRO-2-FURYL)VINYL]-1,2,4-OXADIAZOLE;SQL8506, 28754-68-9, Carcinogen: TRANS-5-AMINO-3-[2-(5-NITRO-2-FURYL)VINYL]-1,2,4-OXADIAZOLE;SQL8506, 28754-68-9, Dose [Inhibitor]: 80 MG/KG 18 HR BEFORE THE 1ST CARCINOGEN DOSE FOLLOWED BY ADDITIONAL INJECTIONS IMMEDIATELY BEFORE EACH DOSE OF CARCINOG, Route [Inhibitor]: INTRAPERITONEAL, Species: MOUSE, Strain/Sex: CD-1/FEMALE, Target Tissue: Type of Lesion: LYMPHOID TISSUE: THYMIC LYMPHOMA, Dose [Carcinogen]: 1 G/KG 2/D FOR 5 D EVERY 4 WK FOR 3 COURSES OF TREATMENT, Promoter: NONE USED): 22/137 (16%), 4/26 (15%), 6%, not calculated | tumour outcome (control, treated, inhibition, significance) (Carcinogen: TRANS-5-AMINO-3-[2-(5-NITRO-2-FURYL)VINYL]-1,2,4-OXADIAZOLE;SQL8506, 28754-68-9, Carcinogen: TRANS-5-AMINO-3-[2-(5-NITRO-2-FURYL)VINYL]-1,2,4-OXADIAZOLE;SQL8506, 28754-68-9, Dose [Inhibitor]: 80 MG/KG 18 HR BEFORE THE 1ST CARCINOGEN DOSE FOLLOWED BY ADDITIONAL INJECTIONS IMMEDIATELY BEFORE EACH DOSE OF CARCINOG, Route [Inhibitor]: INTRAPERITONEAL, Species: MOUSE, Strain/Sex: CD-1/FEMALE, Target Tissue: Type of Lesion: STOMACH: SQUAMOUS CARCINOMA, Dose [Carcinogen]: 1 G/KG 2/D FOR 5 D EVERY 4 WK FOR 3 COURSES OF TREATMENT, Promoter: NONE USED): 60/137 (44%), 14/26 (54%), -23%, not calculated

CCCC(=O)OC[C@@H](OC(=O)CCC)[C@@H](OC(=O)CCC)[C@H](Cn1c2nc(=O)[nH]c(=O)c-2nc2cc(C)c(C)cc21)OC(=O)CCC
tumour outcome (control, treated, inhibition, significance) (Carcinogen: 3-METHYLCHOLANTHRENE, 56-49-5, Dose [Inhibitor]: 0.1% IN 0.05 ML ACETONE 2 HR AFTER APPLICATION OF THE CARCINOGEN THEN 1/2 D (STUDY DURATION: 15 WK), Route [Inhibitor]: DERMAL, Species: MOUSE, Strain/Sex: DDY/FEMALE, Target Tissue: Type of Lesion: SKIN: PAPILLOMA, Dose [Carcinogen]: 0.3% IN 0.05 ML ACETONE 2/WK, Promoter: NONE USED): 7/50 (14%), 2/49 (4%), 71%, not calculated | tumour outcome (control, treated, inhibition, significance) (Carcinogen: 3-METHYLCHOLANTHRENE, 56-49-5, Dose [Inhibitor]: 0.1% IN 0.05 ML ACETONE 2 HR AFTER APPLICATION OF THE CARCINOGEN THEN 1/2 D (STUDY DURATION: 15 WK), Route [Inhibitor]: DERMAL, Species: MOUSE, Strain/Sex: DDY/FEMALE, Target Tissue: Type of Lesion: SKIN: SQUAMOUS CELL CARCINOMA, Dose [Carcinogen]: 0.3% IN 0.05 ML ACETONE 2/WK, Promoter: NONE USED): 34/50 (68%), 20/49 (41%), 40%, p<0.01

CC1(C)O[C@H]2CC(=O)OC[C@]23[C@H]2CC[C@@]4(C)[C@H](c5ccoc5)OC(=O)[C@H]5O[C@]54[C@]2(C)C(=O)C[C@@H]13
tumour outcome (control, treated, inhibition, significance) (Carcinogen: AZOXYMETHANE, 25843-45-2, Dose [Inhibitor]: 0, 0.05% IN DIET FOR 35 WK BEGINNING 1 WK POST CARCINOGEN LAST DOSE (STUDY DURATION: 38 WK), Route [Inhibitor]: ORAL, Species: RAT, Strain/Sex: F344/MALE, Target Tissue: Type of Lesion: COLON: ADENOCARCINOMA, Dose [Carcinogen]: 20 MG/KG BW 1/WK FOR 2 WK): 18/25 (72%), 1/16 (6%), 92%, p=0.00003 and 18/25 (72%), 2/16 (13%), 82%, p=0.0002

COC(=O)[C@H](CCSC)NC(C)=O
tumour outcome (control, treated, inhibition, significance) (Carcinogen: 7,12-DIMETHYLBENZ[A]ANTHRACENE, 57-97-6, Dose [Inhibitor]: 0.06 MMOL/G DIET DAILY FOR 17 WK STARTING 1 WK PRIOR TO CARCINOGEN TREATMENT AND CONTINUING THROUGH THE END OF THE STUDY, Route [Inhibitor]: ORAL, Species: RAT, Strain/Sex: SPRAGUE-DAWLEY/FEMALE, Target Tissue: Type of Lesion: MAMMARY GLAND: TUMOR, Dose [Carcinogen]: 12 MG IN 1 ML OLIVE OIL ONCE, Promoter: NONE USED): 59%, 75%, -27%, not calculated

C[C@H](CCC(=O)O)[C@H]1CC[C@H]2[C@@H]3[C@@H](O)C[C@@H]4C[C@H](O)CC[C@]4(C)[C@H]3CC[C@]12C
tumour outcome (control, treated, inhibition, significance) (Carcinogen: AZOXYMETHANE, 25843-45-2, Dose [Inhibitor]: 0, 0.2% IN DIET FOR 28 WK BEGINNING 2 WK PRIOR TO CARCINOGEN TREATMENT (STUDY DURATION: 30 WK), Route [Inhibitor]: ORAL, Species: RAT, Strain/Sex: F344/MALE, Target Tissue: Type of Lesion: COLON: TUMOR, Dose [Carcinogen]: 15 MG/KG BW 1/WK FOR 2 WK, Promoter: CHOLIC ACID, 81-25-4): 30/47 (64%), 20/47 (43%), 33%, not significant | tumour outcome (control, treated, inhibition, significance) (Carcinogen: AZOXYMETHANE, 25843-45-2, Dose [Inhibitor]: 0, 0.2% IN DIET FOR 28 WK BEGINNING 2 WK PRIOR TO CARCINOGEN TREATMENT (STUDY DURATION: 30 WK), Route [Inhibitor]: ORAL, Species: RAT, Strain/Sex: F344/MALE, Target Tissue: Type of Lesion: COLON: TUMOR, Dose [Carcinogen]: 15 MG/KG BW 1/WK FOR 2 WK, Promoter: NONE USED): 20/43 (47%), 23/48 (48%), -2%, not significant | tumour outcome (control, treated, inhibition, significance) (Carcinogen: AZOXYMETHANE, 25843-45-2, Dose [Inhibitor]: 0, 0.4% IN DIET FOR 28 WK BEGINNING 2 WK PRIOR TO CARCINOGEN TREATMENT (STUDY DURATION: 30 WK), Route [Inhibitor]: ORAL, Species: RAT, Strain/Sex: F344/MALE, Target Tissue: Type of Lesion: COLON: TUMOR, Dose [Carcinogen]: 15 MG/KG BW 1/WK FOR 2 WK, Promoter: NONE USED): 20/43 (47%), 10/45 (22%), 53%, p<0.05
